Measured values from patent US9353152B2, “Induction of the mitochondrial permeability transition” (NewSouth Innovations Pty Limited, priority 2002, dated 2016).

Experiments:
[1] = biological target: T1, MPTP (Rattus norvegicus, UniProt Q09073); type: biochemical
T1 construct: Mitochondria were isolated from the livers of ˜250 g male Wistar rats; from tissue; host or cells: rat liver mitochondria (male Wistar rats)
T1 sequence (Q09073 2-298 limits assumed): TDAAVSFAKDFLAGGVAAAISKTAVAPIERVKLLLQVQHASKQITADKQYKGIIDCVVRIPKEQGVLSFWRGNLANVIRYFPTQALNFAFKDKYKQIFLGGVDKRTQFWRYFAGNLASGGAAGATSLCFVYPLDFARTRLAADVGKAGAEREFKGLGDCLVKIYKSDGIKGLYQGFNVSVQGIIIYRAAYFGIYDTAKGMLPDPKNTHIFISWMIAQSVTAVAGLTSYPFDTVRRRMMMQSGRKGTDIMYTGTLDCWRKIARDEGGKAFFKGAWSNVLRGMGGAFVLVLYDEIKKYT

[2] = Titration of arsenoxide compounds with DTT; type: physicochemical; details: GSAO versus Compound 1
[3] = test system: bovine vascular smooth muscle cells; test: Proliferation arrest; type: cell-based
Experimental: To distinguish between the anti-proliferative and pro-apoptotic effects of GSAO, treated cells were stained with propidium iodide (PI) to detect late-apoptotic or dead cells. The total number of cells and the proportion of cells that were PI-positive following 48 h treatment with GSAO were measured by flow cytometry.

[4] = biological target: T1, MPTP; test: Mitochondria swelling assay (MPT induction, decrease in light scattering at 520 nm); type: biochemical
[5] = test system: human pancreatic carcinoma BxPC-3 cells; test: Cell proliferation and viability assay (MTT); type: cell-based; details: 10% serum, 48 h; read-out: IC50 for proliferation arrest of BxPC-3 cells
Experimental: (§1) BAE or human pancreatic carcinoma BxPC-3 cells were seeded at a density of 10^3 cells per well into 96 well plates in DMEM containing 10% foetal bovine serum and allowed to adhere for 24 h. Cells were washed and incubated with DMEM containing 10% foetal bovine serum and GSAO or o-GSAO and cultured for a further 48 h. Some BAE cells were arrested for 24 h in medium containing 0.25% serum and cultured for a further 48 h in medium containing 0.25% or 10% serum, in the presence of GSAO or o-GSAO. Viable attached cells were determined using MTT.

[6] = test system: Rat liver mitochondria; type: biochemical; details: 100 μM GSAO, 0-60 min
[7] = biological target: T2, ANT Cys^160 (Rattus norvegicus, UniProt Q09073); test: Labelling of ANT with eosin-5-maleimide (competition); type: binding; details: 200 nmol GSAO per mg of protein, sub-mitochondrial particles
T2 construct: Rat liver sub-mitochondrial particles were prepared by sonication and differential centrifugation; from tissue; host or cells: rat liver sub-mitochondrial particles
T2 sequence (Q09073 1-298): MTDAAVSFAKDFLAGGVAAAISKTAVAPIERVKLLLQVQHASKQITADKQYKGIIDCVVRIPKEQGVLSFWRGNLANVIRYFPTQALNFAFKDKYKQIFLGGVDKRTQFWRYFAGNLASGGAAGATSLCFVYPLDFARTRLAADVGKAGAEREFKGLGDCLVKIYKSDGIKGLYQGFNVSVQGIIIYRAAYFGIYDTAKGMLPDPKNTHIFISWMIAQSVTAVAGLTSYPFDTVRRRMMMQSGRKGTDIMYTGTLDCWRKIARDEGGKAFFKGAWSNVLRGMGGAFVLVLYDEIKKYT
Experimental: Rat liver sub-mitochondrial particles were prepared by sonication and differential centrifugation according to Majima et al. (1998). The particles were suspended at 20 mg of protein per mL in 10 mM Tris, pH 7.2 buffer containing 250 mM sucrose and 0.2 mM EDTA and incubated without or with 200 nmol GSAO per mg of protein for 10 min at 25° C., followed by 20 nmol of eosin-5-maleimide per mg of protein for 1 min at 0° C. in the dark. The labelling was terminated by addition of 10 μmol of dithiothreitol per mg of protein. The proteins were resolved on 4-20% gradient iGels and the eosin-labelled ANT was visualised by UV transillumination using a Fluor-S™ Multilmager (Bio-Rad, Hercules, Calif.).

[8] = test system: BxPC-3 tumours; test: Immunohistochemistry of tumour sections (CD31, PCNA, TUNEL); type: in vivo, SCID mice; details: day 31, GSAO- versus GSAA-treated tumours
Excerpt: Tumours were fixed in Buffered Formalde-Fresh (Fisher Scientific, Fair Lawn, N.J.), embedded in paraffin and 5 μm thick sections were cut and placed on glass slides. Sections were stained with haematoxylin and eosin or for CD31, PCNA (Holmgren et al., 1995) or fragmented DNA (Gavrielli et al., 1992). […] The proliferative index was estimated by the percentage of cells scored under 400× magnification. A minimum of 1000 cells was counted in two separate sections. The apoptotic index was estimated by the percentage of cells scored under 400× magnification. A minimum of 1500 cells was counted in two separate sections.

[9] = test system: BAE cells; test: Cell proliferation and viability assay (MTT); type: cell-based, bovine; details: 10% serum, 48 h; read-out: IC50 for proliferation arrest of BAE cells
Experimental: as §1

[10] = test system: HT1080 tumours; test: Primary tumour growth assay; type: in vivo; details: 10 mg/kg/day s.c., SCID mice
Experimental: (§2) Female 7 to 9 week old SCID or C57Bl6/J mice were used (Massachusetts General Hospital, Boston, Mass.). Mice were held in groups of 3 to 5 at a 12 hour day and night cycle and were given animal chow and water ad libidum. SCID or C57Bl6/J mice were anaesthetised by inhalation of isoflurane, the dorsal skin shaved and cleaned with ethanol, and a suspension of 2.5×10^6 BxPC-3, HT1080 or LLC cells in 0.2 mL of PBS, or saline for LLC cells, was injected S.C. in the proximal midline. LLC cells were prepared according to O'Reilly et al. (1997). Tumour volume was calculated using the relationship, a·b^2·0.52, where a is the longest and b the shortest diameter.

[11] = test system: LLC tumours; test: Primary tumour growth assay; type: in vivo; details: 10 mg/kg/day s.c., C57Bl6/J mice
Experimental: as §2

## N[C@@H](CCC(=O)N[C@@H](CSCC(=O)Nc1ccc([As]=O)cc1)C(=O)NCC(=O)O)C(=O)O (some centres unmarked) [GSAO, 4-(N—(S-glutathionylacetyl)amino)-phenylarsenoxide]
[1]
  MPTP Swelling Rate Increase/GSAO* Mean: 1
[2]
  arsenical reactivity (titration with DTT): no significant difference
[3]
  IC50: ~30 µM
[4]; 50-200 μM GSAO, increasing Ca^2+ concentration
  half-time for GSAO mediated swelling of the mitochondria: reduced by added Ca^2+
[4]; GSAO 25-200 μM, GSAA, GSCA 100 μM, 60 min
  swelling of isolated rat liver mitochondria: triggered swelling
[5]
  IC50: > 300 µM
[6]
  release of Cytochrome C into the medium: triggered time-dependent release
[7]
  competition for eosine-maleimide alkylation of ANT Cys^160: competed
[8]
  proliferative index (PCNA): the same
[8]; p<0.001
  blood vessel density (CD31): significant reduction
[8]; p=0.05
  apoptotic index (TUNEL): significant increase
[9]
  IC50: 8.3 ± 2.1 µM
[10]
  inhibition of the rate of tumour growth: ~70%
[11]
  inhibition of the rate of tumour growth: ~50%
